In EP4151646A1, “5-FLUOROURACIL DERIVATIVES AS PRODRUGS FOR CANCER TREATMENT” (Universität Hamburg, priority 2021, dated 2023):

Columns and labels:
Assay type in all cases: cell-based
HT29 = assay: XTT cell viability test on colon cancer cell line HT29; conditions: 72 hours incubation
Excerpt: Three further JW-substances (JW-7, JW-8, JW-9) having the general structure according to formula 1b above with acyloxybenzyl-groups of different lengths (from 4 to 17 carbon atoms), but being asymmetrically substituted (i.e. having different groups R^A1 and R^B1), in four different concentrations (1.11, 3.33, 10 and 30 µmol/l) were investigated. As a comparison, 5-FU was used in the same concentrations. The investigated cell lines were the colon cancer cell lines CaCo2 and HT29.
(§1) The experiments consisted of three steps. On the first day, the cells were planted on 96-well-plates and left for growing and adhering for 24 hours. On the second day, the substances were applied in the known concentrations, diluted in the cell-line specific medium. After an incubation period of 72 hours, XTT-colouring (see, e.g., Roehm NW, Rodgers GH, Hatfield SM, Glasebrook AL, 1991, An improved colorimetric assay for cell proliferation and viability utilizing the tetrazolium salt XTT, J Immunol Methods, 142(2):257-65. doi: 10.1016/0022-1759(91)90114-u) was applied and the absorbance was measured after 6 hours. Table 2. Residues RA1 and RB1 of three further 5-Fluorouracil nucleoside triphosphate prodrugs according to the invention, being asymmetrically substituted with residues RA1 and RB1.

MDA-MB231 = assay: XTT cytotoxicity test on triple-negative breast carcinoma cell line; conditions: 25, 12.5 and 6.25 µmol/l, compared with 5-FU, 72 hours incubation
Excerpt: In a first approach, six different JW-substances (JW-1, JW-2, JW-3, JW-4, JW-5, JW-6) having the general structure according to formula 1b above with acyloxybenzyl-groups of different lengths (from 8 to 13 carbon atoms) in three different concentrations (25, 12.5 and 6.25 µmol/l) were investigated. As a comparison, 5-FU was used in the same concentrations. The investigated cell line was a triple-negative breast carcinoma (MDA-MB231), see Fig. 2. The treatment of Triple Negative Breast Cancer is not well standardised, however, one of the treatment options includes 5-FU (Yin L, Duan JJ, Bian XW, Yu SC. Triple-negative breast cancer molecular subtyping and treatment progress. Breast Cancer Res. 2020 Jun 9;22(1):61. doi: 10.1186/s13058-020-01296-5. PMID: 32517735; PMCID: PMC7285581). […] Table 1. Residues RA1 and RB1 of six different symmetrically masked 5-Fluorouracil nucleoside triphosphate prodrugs according to the invention.
The experiments consisted of three steps. […] After an incubation period of 72 hours, XTT-colouring (see, e.g., Roehm NW, Rodgers GH, Hatfield SM, Glasebrook AL, 1991, An improved colorimetric assay for cell proliferation and viability utilizing the tetrazolium salt XTT, J Immunol Methods, 142(2):257-65. doi: 10.1016/0022-1759(91)90114-u) was applied and the absorbance was measured after 6 hours. […]

SW620 = assay: XTT cytotoxicity test on colon carcinoma cell line, wider concentration range; conditions: 30 µmol in triple dilution up to 0.014 µmol
Protocol: Further investigations were performed in relation these two substances (JW-1 and JW-4). The same procedure as in the first experiments was used, but with a wider concentration range in order to examine the onset of cytotoxicity and the therapeutic range more closely. Thus, JW-1, JW-4 and 5-FU were applied to the cells (colon carcinoma cell line SW620) in the concentrations of 30 µmol in triple dilution up to 0.014 µmol and then examined according to the same scheme. […] A major advantage is, however, their increased therapeutic range. The cytotoxicity threshold is much lower than that of 5-FU. In the case of 5-FU, first cytotoxic effects can be detected between 1 and 3 µmol. In comparison, the threshold for JW-1 and JW-4 is below 1 µmol.
as §1

Compound	IC50 (HT29; 1.11, 3.33, 10 and 30 µmol/l) [µM]	cytotoxic effects (MDA-MB231)	IC-50 values compared with 5-FU (SW620)	cytotoxicity threshold (first cytotoxic effects) (SW620)	other results
O=c1[nH]cc(F)c(=O)[nH]1 [Compound 5-FU, 5-fluorouracil]	–	–	–	–	IC50 (HT29; Homo sapiens, HT-29, 1.11, 3.33, 10 and 30 µmol/l): ~15 µM
C8-TriPPPro [JW-1]	–	significantly stronger cytotoxicity	at least as low as 5-FU	below 1 µmol	–
C11-TriPPPro [JW-4]	–	significantly stronger cytotoxicity	at least as low as 5-FU	below 1 µmol	–

Second part, led by results:

IC50 (HT29; 1.11, 3.33, 10 and 30 µmol/l) [µM]	Compound	cytotoxic effects (MDA-MB231)	IC-50 values compared with 5-FU (SW620)	cytotoxicity threshold (first cytotoxic effects) (SW620)	other results
4 to 5	C4/C17-TriPPPro [JW-07]	–	–	–	–
2	C7/C9-TriPPPro [JW-08]	–	–	–	–
1 to 2	C10/C12-TriPPPro [JW-09]	–	–	–	–
